The target in test [1] is T1, hMAT2A (Homo sapiens, UniProt P31153). The test can be described thus: Phosphate Sensor Fluorescence Assay (MAT2A enzyme inhibition). As to conditions: L-methionine and ATP 500 uM, 1 hour. In kind it is biochemical. More on the design: Human MAT2A: Cepter, amino acids 1-395; purchased Cepter clone ID 329, lot 00023-123; clone ID 334, lot 00023-148. The procedure: (§1) The ability of the compound of present disclosure to inhibit MAT2A enzyme was determined using the Malachite Green or Phosphate Sensor Fluorescence Assay described below.
T1 sequence (P31153 whole entry, the tested form may be a part): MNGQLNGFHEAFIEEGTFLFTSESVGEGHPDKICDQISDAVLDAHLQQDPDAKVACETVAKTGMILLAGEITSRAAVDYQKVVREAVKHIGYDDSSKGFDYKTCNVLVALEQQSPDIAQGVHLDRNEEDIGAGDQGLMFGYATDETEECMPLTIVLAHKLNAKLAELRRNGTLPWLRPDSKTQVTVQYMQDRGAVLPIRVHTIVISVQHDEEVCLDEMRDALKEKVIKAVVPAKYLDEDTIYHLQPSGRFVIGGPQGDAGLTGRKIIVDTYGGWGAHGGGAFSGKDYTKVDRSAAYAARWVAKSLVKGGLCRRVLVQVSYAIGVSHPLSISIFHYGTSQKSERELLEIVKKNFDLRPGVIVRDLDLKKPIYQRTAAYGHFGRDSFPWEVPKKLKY
Biologic Example B. Phosphate Sensor Fluorescence Assay
MAT2A enzyme is incubated with a test compound in DMSO or DMSO and its substrates (L-methionine and ATP) in a microtiter plate. The enzymatic reaction is stopped by the addition of Working Phosphate Sensor Mixture. The plate is analyzed for fluorescence at 450 nm. The high control (DMSO with enzyme and its substrates) gives high fluorescence which represents no inhibition of enzymatic activity while the low control (DMSO with MAT2A substrates and no enzyme) gives low fluorescence which represents full inhibition of enzymatic activity.
Human MAT2A: Cepter, amino acids 1-395
Assay Buffer: 50 mM Tris, pH 7.5/50 mM KCl/10 mM MgCl2/0.01% Brij-35/1 mM DTT/0.1% BGG/40 nM PNP/6 uM 7-MEG
MAT2A: 10 nM for Cepter clone ID 329, lot 00023-123 before the addition of Working Phosphate Sensor Mixture • 5 nM for Cepter clone ID 334, lot 00023-148 before the addition of Working Phosphate Sensor Mixture
L-methionine: 500 uM before the addition of Working Phosphate Sensor Mixture
ATP: 500 uM before the addition of Working Phosphate Sensor Mixture
For the assay, a mixture of 1 mM L-methionine/1 mM ATP (2× final pre-stopped concentration) in assay buffer; MAT2A (2× final pre-stopped concentration) in Assay Buffer and Working Phosphate Sensor Mixture (1.5 uM Phosphate Sensor/30 mM EDTA in Assay Buffer, which is 3× final concentrations) were prepared. Test compounds or DMSO were added to the appropriate well suing D300e digital dispenser. 5 μl/well of Assay Buffer was added to the wells corresponding to the negative control and 5 μl/well of MAT2A was added to all the wells except for those corresponding to the negative control. After incubating the plate at room temperature for 15 minutes, 5 μl/well of the 1 mM L-methionine/1 mM ATP mixture was added to all wells. The plate was centrifuged at 1000 rpm for 1 minute and then incubated at room temperature for 1 hour. 5 μl of the Working Phosphate Sensor Mixture was added to all wells and the plate was centrifuged at 1000 rpm for 1 minute. The plate was read for fluorescence at 450 nm after exciting at 430 nm.
Percent inhibition was calculated in Chemical and Biological Information System (CBIS), (ChemInnovation Software Inc.). Curves were fitted by CBIS as % inhibition vs. log [compound concentration] using a 4-parameter inhibition model.
Fit=(A+((B−A)/(1+((C/x)^D))))

The target in test [2] is T1, hMAT2A. The test can be described thus: Malachite Green Assay (MAT2A enzyme inhibition). It is filed as biochemical. More on the design: amino acids 1-395; purchased Cepter. As to conditions: hMAT2A 50 nM, substrates 500 uM each, 1 hour. The protocol: as §1
Biologic Example A. Malachite Green Assay
Enzyme: MAT2A • hMAT2A: 50 nM, Cepter, 10 mg/mL (234 μM), amino acids 1-395 • Substrates: 500 uM each • Reaction time: 1 hour
L-methionine Substrate: Alfa Aesar catalog #J61904
ATP Substrate: Alfa Aesar cat #J60336
Malachite Green Detection Reagent: Millipore Sigma catalog #MAK307-1KT
Assay buffer: 50 mM Tris, pH 7.5/50 mM KCl/10 mM MgCl2/0.01% Brij-35/1 mM DTT/0.1% BGG
0% inhibition control: DMSO
100% inhibition control: No enzyme
5 μL of 3× final concentration test compounds in DMSO or DMSO were transferred to the appropriate wells of a microtiter plate and the plate was centrifuged at 1000 rpm for 1 minute. 5 μL of 3× final concentration MAT2A enzyme in assay buffer or assay buffer alone was transferred to the appropriate wells and the plate was centrifuged at 1000 rpm for 1 minute. The plate was incubated at room temperature for 15 minutes and then 5 μL of 3× the L-methionine and ATP substrate mixture in assay buffer was transferred to all the test wells. The plate was centrifuged at 1000 rpm for 1 minute and then incubated at room temperature for 1 hour. 5 μL of malachite green detection reagent was added to all the test wells and the plate was centrifuged at 1000 rpm for 1 minute and then incubated at room temperature for 30 minutes. The plate was read for absorbance at 620 nm on a plate reader (e.g., Infinite M1000). The high control (DMSO) with high absorbance represents no inhibition of enzymatic reaction while the low control (no enzyme) with low absorbance represents full inhibition of enzymatic reaction.

Here are results for 20 molecules from patent publication US20230257359A1, “4-ARYLQUINAZOLINE DERIVATIVES AS METHIONINE ADENOSYLTRANSFERASE 2A INHIBITORS” (IDEAYA BIOSCIENCES, INC., priority 2020, published 2023).

For orientation: IC50 means the midpoint of a concentration-inhibition curve. A higher IC50 goes with a need for much substance.

`Oc1nc(-c2cccnc2Cl)c2cc(Br)ccc2n1` [1.003, 6-bromo-4-(2-chloropyridin-3-yl)quinazolin-2-ol] yielded an IC50 against hMAT2A [1] (class symbols) of 200 to 500 nM.

At hMAT2A [1] (class symbols), `COc1cc(C2CC2)cc2c(-c3ccccc3)nc(O)nc12` [1.019, 6-cyclopropyl-8-methoxy-4-phenylquinazolin-2-ol] returned an IC50 of 10 to 200 nM.

On hMAT2A [1] (class symbols), `Cc1ccc2[nH]c(=O)nc(-c3ccccc3)c2c1` [1.014, 6-methyl-4-phenylquinazolin-2-ol] returned an IC50 of 500 to 1000 nM.

In turn, `Cc1ccccc1-c1nc(O)nc2ccc(C3CC3)cc12` [1.016, 6-cyclopropyl-4-(o-tolyl)quinazolin-2-ol] gave an IC50 on hMAT2A [1] (class symbols) of 10 to 200 nM.

As for `CNC(=O)c1nc(-c2ccccc2)c2cc(Cl)ccc2n1` [1.008, 6-chloro-N-methyl-4-phenylquinazoline-2-carboxamide], the half-maximal inhibitory concentration (IC50) on hMAT2A [1] (numeric bound) and at hMAT2A [2] (numeric bound) was above 10000 nM throughout.

As to `N#CCc1nc(-c2ccccc2)c2cc(Cl)ccc2n1` [1.010, 2-(6-chloro-4-phenylquinazolin-2-yl)acetonitrile], the IC50 against hMAT2A [1] (numeric bound) and at hMAT2A [2] (numeric bound) was above 10000 nM throughout.

For `NC(=O)Cc1nc(-c2ccccc2)c2cc(Cl)ccc2n1` [1.011, 2-(6-chloro-4-phenylquinazolin-2-yl)acetamide], the IC50 against hMAT2A [1] (numeric bound) and against hMAT2A [2] (numeric bound) was above 10000 nM throughout.

Take `Oc1nc(-c2cccnc2)c2cc(Br)ccc2n1` [1.017, 6-bromo-4-(pyridin-3-yl)quinazolin-2-ol]: the IC50 at hMAT2A [1] (class symbols) fell in the range of 1000 to 10000 nM.

As to `OCc1nc(-c2ccccc2)c2cc(Cl)ccc2n1` [1.009], the IC50 against hMAT2A [1] (numeric bound) and against hMAT2A [2] (numeric bound) was above 10000 nM each time.

With `Clc1ccc2nc(Cl)nc(-c3ccccc3)c2c1` [1.002, 2,6-dichloro-4-phenylquinazoline], the IC50 on hMAT2A [1] (numeric bound) and at hMAT2A [2] (numeric bound) was above 10000 nM throughout.

Regarding `O=c1nc(-c2ccccc2)c2cc(Br)ccc2[nH]1` [1.013, 6-bromo-4-phenylquinazolin-2-ol], the IC50 against hMAT2A [1] (class symbols) and against hMAT2A [2] (class symbols) was 10 to 200 nM in each case.

As for `O=C(O)c1nc(-c2ccccc2)c2cc(Cl)ccc2n1` [1.006, 6-chloro-4-phenylquinazoline-2-carboxylic acid], the IC50 against hMAT2A [1] (numeric bound) is above 10000 nM.

On to `Oc1nc(-c2ccccc2)c2cc(C(F)(F)F)ccc2n1` [1.015, 4-phenyl-6-(trifluoromethyl)quinazolin-2-ol], for which, on hMAT2A [1] (class symbols), the IC50 lay in the range of 10 to 200 nM.

`Cc1ncccc1-c1nc(O)nc2ccc(Br)cc12` [1.020, 6-bromo-4-(2-methylpyridin-3-yl)quinazolin-2-ol]: the half-inhibitory concentration (IC50) at hMAT2A [1] (class symbols) is 10 to 200 nM.

Turning to `N#Cc1nc(-c2ccccc2)c2cc(Cl)ccc2n1` [1.005, 6-chloro-4-phenylquinazoline-2-carbonitrile], the IC50 at hMAT2A [1] (numeric bound) and against hMAT2A [2] (numeric bound) was above 10000 nM each time.

Consider `COC(=O)Cc1nc(-c2ccccc2)c2cc(Cl)ccc2n1` [1.012, methyl 2-(6-chloro-4-phenylquinazolin-2-yl)acetate], for which the IC50 against hMAT2A [1] (numeric bound) and at hMAT2A [2] (numeric bound) was above 10000 nM each time.

Turning to `O=c1nc(-c2ccccc2)c2cc(Cl)ccc2[nH]1` [1.001, 6-chloro-4-phenylquinazolin-2-ol], the half-inhibitory concentration (IC50) at hMAT2A [1] (class symbols) and on hMAT2A [2] (class symbols) was 10 to 200 nM each time.

Molecule `Cc1ccc2nc(O)nc(-c3ccccc3)c2n1` [1.018, 6-methyl-4-phenylpyrido[3,2-d]pyrimidin-2-ol] showed an IC50 against hMAT2A [1] (class symbols) of 1000 to 10000 nM.

`Oc1nc(-c2cccnc2C(F)(F)F)c2cc(Br)ccc2n1` [1.021, 6-bromo-4-(2-(trifluoromethyl)pyridin-3-yl)quinazolin-2-ol] yielded an IC50 at hMAT2A [1] (class symbols) of 1000 to 10000 nM.

In the case of `CC(C)(C)OC(=O)N1CC(Oc2nc(-c3ccccc3)c3cc(Cl)ccc3n2)C1` [1.004, tert-butyl 3-((6-chloro-4-phenylquinazolin-2-yl)oxy)azetidine-1-carboxylate], the IC50 against hMAT2A [1] (numeric bound) and on hMAT2A [2] (numeric bound) was above 10000 nM each time.
